Source: US7304174B2, “CaSR antagonist” (Japan Tobacco Inc., priority 2003, dated 2007)

target: T1, human calcium receptor (Homo sapiens, UniProt P41180); test: Evaluation of antagonistic action on calcium receptor using reporter gene (luciferase); format: cell-based; conditions: transformed rat adrenal derived cells, 5 mM calcium chloride, culture 4 hrs, luciferase activity; read-out: Reporter gene assay (IC50, concentration showing 50% inhibitory rate)
T1 construct: expressed in transfected cells; host or cells: cell strain derived from rat adrenal, co-transformed with luciferase cDNA
T1 sequence (P41180 20-1078): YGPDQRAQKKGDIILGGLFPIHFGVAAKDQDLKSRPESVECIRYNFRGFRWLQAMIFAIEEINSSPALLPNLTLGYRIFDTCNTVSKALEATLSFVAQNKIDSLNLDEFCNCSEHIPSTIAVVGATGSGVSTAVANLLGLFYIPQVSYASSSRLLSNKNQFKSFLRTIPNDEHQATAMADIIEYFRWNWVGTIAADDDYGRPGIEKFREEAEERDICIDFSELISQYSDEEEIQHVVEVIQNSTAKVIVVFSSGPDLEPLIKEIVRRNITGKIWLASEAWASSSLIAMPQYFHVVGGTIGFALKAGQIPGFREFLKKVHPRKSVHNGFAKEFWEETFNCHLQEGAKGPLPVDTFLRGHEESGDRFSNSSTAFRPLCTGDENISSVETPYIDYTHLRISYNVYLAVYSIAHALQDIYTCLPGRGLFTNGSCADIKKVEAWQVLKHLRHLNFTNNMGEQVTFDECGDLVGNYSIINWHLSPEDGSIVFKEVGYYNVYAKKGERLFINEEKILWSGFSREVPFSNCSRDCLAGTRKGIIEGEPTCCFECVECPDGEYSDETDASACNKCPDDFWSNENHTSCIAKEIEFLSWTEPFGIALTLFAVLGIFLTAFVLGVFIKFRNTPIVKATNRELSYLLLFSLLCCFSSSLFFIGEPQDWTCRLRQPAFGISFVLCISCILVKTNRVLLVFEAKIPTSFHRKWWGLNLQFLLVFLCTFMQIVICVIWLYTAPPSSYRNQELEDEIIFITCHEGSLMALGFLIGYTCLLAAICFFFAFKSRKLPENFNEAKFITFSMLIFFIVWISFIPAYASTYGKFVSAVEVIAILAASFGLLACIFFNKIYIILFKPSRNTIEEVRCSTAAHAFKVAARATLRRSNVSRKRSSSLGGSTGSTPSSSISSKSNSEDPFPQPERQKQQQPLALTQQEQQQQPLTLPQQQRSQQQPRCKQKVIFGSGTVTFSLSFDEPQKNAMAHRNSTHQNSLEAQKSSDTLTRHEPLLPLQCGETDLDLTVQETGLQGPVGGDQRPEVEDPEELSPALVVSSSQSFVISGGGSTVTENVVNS
Method in brief: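 Rat adrenal-derived cells transfected with luciferase and human calcium receptor cDNA, in F12 with 0.5% dialyzed horse serum and 0.25% dialyzed fetal bovine serum. Luciferase luminescence gave % inhibition vs control and blank; IC50 at 50% inhibition.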

Compound | IC50 [nM]
COc1cc(-c2ccccc2[C@@H](C)OC[C@H](O)CNC(C)(C)Cc2ccc(Cl)cc2F)ccc1C(=O)O [Example 1-81, 2′-[1-[(2R)-3-[[1-(4-chloro-2-fluorophenyl)-2-methylpropan-2-yl]amino]-2-hydroxypropoxy]ethyl]-3-methoxybiphenyl-4-carboxylic acid] | 26
COc1cc(-c2ccccc2[C@@H](C)OC[C@H](O)CNC(C)(C)Cc2ccc(Cl)c(F)c2)ccc1C(=O)O [Example 1-82, 2′-[1-[(2R)-3-[[1-(4-chloro-3-fluorophenyl)-2-methylpropan-2-yl]amino]-2-hydroxypropoxy]ethyl]-3-methoxybiphenyl-4-carboxylic acid] | 27
Cc1cc(C(=O)O)ccc1-c1ccccc1[C@@H](C)OC[C@H](O)CNC(C)(C)Cc1ccc(Cl)c(F)c1 [Example 1-83, 2′-[1-[(2R)-3-[[1-(4-chloro-3-fluorophenyl)-2-methylpropan-2-yl]amino]-2-hydroxypropoxy]ethyl]-2-methylbiphenyl-4-carboxylic acid] | 16
Cc1cc(C(=O)O)ccc1-c1ccccc1[C@@H](C)OC[C@H](O)CNC(C)(C)Cc1ccc(Cl)cc1F [Example 1-84, 2′-[1-[(2R)-3-[[1-(4-chloro-2-fluorophenyl)-2-methylpropan-2-yl]amino]-2-hydroxypropoxy]ethyl]-2-methylbiphenyl-4-carboxylic acid] | 22
Cc1ccc(-c2ccccc2[C@@H](C)OC[C@H](O)CNC(C)(C)Cc2ccc3ccccc3c2)cc1C(=O)O [Example 1-85, 4-methyl-2′-[1-[(2R)-3-[[1-(naphthalen-2-yl)-2-methylpropan-2-yl]amino]-2-hydroxypropoxy]ethyl]biphenyl-3-carboxylic acid] | 4
Cc1ccc(CC(C)(C)NC[C@@H](O)CO[C@H](C)c2ccccc2-c2ccc(C)c(C(=O)O)c2)cc1F [Example 1-86, 2′-[1-[(2R)-3-[[1-(3-fluoro-4-methylphenyl)-2-methylpropan-2-yl]amino]-2-hydroxypropoxy]ethyl]-4-methylbiphenyl-3-carboxylic acid] | 14
Cc1cc(-c2ccccc2[C@@H](C)OC[C@H](O)CNC(C)(C)Cc2cc(Cl)cc(Cl)c2)ccc1C(=O)O [Example 1-87, 2′-[1-[(2R)-3-[[1-(3,5-dichlorophenyl)-2-methylpropan-2-yl]amino]-2-hydroxypropoxy]ethyl]-3-methylbiphenyl-4-carboxylic acid] | 14
Cc1cc(-c2ccccc2[C@@H](C)OC[C@H](O)CNC(C)(C)Cc2ccc(Cl)c(F)c2)ccc1C(=O)O [Example 1-88] | 14
Cc1cc(-c2ccccc2[C@@H](C)OC[C@H](O)CNC(C)(C)Cc2cc(F)ccc2F)ccc1C(=O)O [Example 1-89, 2′-[1-[(2R)-3-[[1-(2,5-difluorophenyl)-2-methylpropan-2-yl]amino]-2-hydroxypropoxy]ethyl]-3-methylbiphenyl-4-carboxylic acid] | 271
Cc1cc(F)c(CC(C)(C)NC[C@@H](O)CO[C@H](C)c2ccccc2-c2ccc(C(=O)O)c(C)c2)cc1Cl [Example 1-90, 2′-[1-[(2R)-3-[[1-(5-chloro-2-fluoro-4-methylphenyl)-2-methylpropan-2-yl]amino]-2-hydroxypropoxy]ethyl]-3-methylbiphenyl-4-carboxylic acid] | 271
Cc1cc(-c2ccccc2[C@@H](C)OC[C@H](O)CNC(C)(C)Cc2cccc(Cl)c2F)ccc1C(=O)O [Example 1-91, 2′-[1-[(2R)-3-[[1-(3-chloro-2-fluorophenyl)-2-methylpropan-2-yl]amino]-2-hydroxypropoxy]ethyl]-3-methylbiphenyl-4-carboxylic acid] | 28
Cc1cc(-c2ccccc2[C@@H](C)OC[C@H](O)CNC(C)(C)Cc2ccc(C(F)(F)F)c(F)c2)ccc1C(=O)O [Example 1-92, 2′-[1-[(2R)-3-[[1-(3-fluoro-4-trifluoromethylphenyl)-2-methylpropan-2-yl]amino]-2-hydroxypropoxy]ethyl]-3-methylbiphenyl-4-carboxylic acid] | 22
Cc1cc(-c2ccccc2[C@@H](C)OC[C@H](O)CNC(C)(C)Cc2cc(F)cc(Cl)c2)ccc1C(=O)O [Example 1-93] | 27
Cc1cc(-c2ccccc2[C@@H](C)OC[C@H](O)CNC(C)(C)Cc2cc(C(F)(F)F)cc(C(F)(F)F)c2)ccc1C(=O)O [Example 1-94, 2′-[1-[(2R)-3-[[1-(3,5-ditrifluoromethylphenyl)-2-methylpropan-2-yl]amino]-2-hydroxypropoxy]ethyl]-3-methylbiphenyl-4-carboxylic acid] | 28
Cc1cc(-c2ccccc2[C@@H](C)OC[C@H](O)CNC(C)(C)Cc2ccc(Cl)c(C(F)(F)F)c2)ccc1C(=O)O [Example 1-97, 2′-[1-[(2R)-3-[[1-(4-chloro-3-trifluoromethylphenyl)-2-methylpropan-2-yl]amino]-2-hydroxypropoxy]ethyl]-3-methylbiphenyl-4-carboxylic acid] | 106
Cc1ccc(CC(C)(C)NC[C@@H](O)CO[C@H](C)c2ccccc2-c2ccc(C(=O)O)c(C(C)(C)C)c2)cc1F [Example 1-98, 2′-[1-[(2R)-3-[[1-(3-fluoro-4-methylphenyl)-2-methylpropan-2-yl]amino]-2-hydroxypropoxy]ethyl]-3-t-butylbiphenyl-4-carboxylic acid] | 13
C[C@@H](OC[C@H](O)CNC(C)(C)Cc1ccc(Cl)cc1F)c1ccccc1-c1ccc(C(=O)O)c(C(C)(C)C)c1 [Example 1-99, 2′-[1-[(2R)-3-[[1-(4-chloro-2-fluorophenyl)-2-methylpropan-2-yl]amino]-2-hydroxypropoxy]ethyl]-3-t-butylbiphenyl-4-carboxylic acid] | 23
C[C@@H](OC[C@H](O)CNC(C)(C)Cc1ccc(Cl)c(F)c1)c1ccccc1-c1ccc(C(=O)O)c(C(C)(C)C)c1 [Example 1-100, 2′-[1-[(2R)-3-[[1-(4-chloro-3-fluorophenyl)-2-methylpropan-2-yl]amino]-2-hydroxypropoxy]ethyl]-3-t-butylbiphenyl-4-carboxylic acid] | 17
Cc1ccc(CC(C)(C)NC[C@@H](O)CO[C@H](C)c2ccccc2-c2ccc(C(=O)O)c(N3CCOCC3)c2)cc1F [Example 1-102, 2′-[1-[(2R)-3-[[1-(3-fluoro-4-methylphenyl)-2-methylpropan-2-yl]amino]-2-hydroxypropoxy]ethyl]-3-morpholinobiphenyl-4-carboxylic acid] | 14
Cc1ccc(CC(C)(C)NC[C@@H](O)CO[C@H](C)c2ccccc2-c2ccc(C(=O)O)c(OC(F)(F)F)c2)cc1F [Example 1-103, 2′-[1-[(2R)-3-[[1-(3-fluoro-4-methylphenyl)-2-methylpropan-2-yl]amino]-2-hydroxypropoxy]ethyl]-3-(trifluoromethoxy)biphenyl-4-carboxylic acid] | 3
Cc1cc(-c2ccccc2[C@@H](C)OC[C@H](O)CNC(C)(C)Cc2ccc(C)c(C(F)(F)F)c2)ccc1C(=O)O [Example 1-104, 2′-[1-[(2R)-3-[[1-(3-trifluoromethyl-4-methylphenyl)-2-methylpropan-2-yl]amino]-2-hydroxypropoxy]ethyl]-3-methylbiphenyl-4-carboxylic acid] | 28
Cc1cc(-c2ccccc2[C@@H](C)OC[C@H](O)CNC(C)(C)Cc2ccc(Cl)c(F)c2)ccc1C(=O)O [Example 1-105] | 9
C[C@@H](OC[C@H](O)CNC(C)(C)Cc1ccc(Cl)c(F)c1)c1ccccc1-c1ccc(C(=O)O)c(CO)c1 [Example 1-106, 2′-[1-[(2R)-3-[[1-(4-chloro-3-fluorophenyl)-2-methylpropan-2-yl]amino]-2-hydroxypropoxy]ethyl]-3-(hydroxymethyl)biphenyl-4-carboxylic acid] | 20
C[C@@H](OC[C@H](O)CNC(C)(C)Cc1ccc(Cl)c(F)c1)c1ccccc1-c1ccc(C(=O)O)c(C(=O)O)c1 [Example 1-107, 2′-[1-[(2R)-3-[[1-(4-chloro-3-fluorophenyl)-2-methylpropan-2-yl]amino]-2-hydroxypropoxy]ethyl]-3-carboxylphenyl-4-carboxylic acid] | 200
Cc1ccc(CC(C)(C)NC[C@@H](O)CO[C@H](C)c2ccccc2-c2ccc(C(=O)O)c(C)c2)cc1F [Example 1-108] | 14
Cc1cc(-c2ccccc2[C@@H](C)OC[C@H](O)CNC(C)(C)Cc2ccc(Cl)cc2F)ccc1C(=O)O [Example 1-109] | 15
